The source of these data is patent US9926340B2, “NAD analogs and methods of using said NAD analogs in determining ribosylation of proteins with PARP mutants” (The Board of Regents of the University of Texas System, priority 2015, dated 2018).

In one assay the target is T1, PARP-1 (L877A) (Homo sapiens, UniProt P09874, L877A).
T1 construct: His10; made in house; host or cells: E. coli BL21(DE3) (inferred)
Description: PARP-1 enzyme kinetics assay (LC-HPLC of nicotinamide formation). The class given is biochemical. As to conditions: 250 nM PARP-1(L877A), 10-500 μM analog, 25° C., 5 minutes. The procedure: (§1) The enzyme kinetics of wild-type and analog-sensitive mutants of human PARP-1 were determined essentially as previously described (Jiang et al., 2010). Purified PARP-1 proteins were incubated for 5 minutes in PARP Enzyme Kinetics Buffer (50 mM Tris.HCl, pH 7.9, 4 mM MgCl2) containing 0.5 mg/mL sonicated salmon sperm DNA (Stratagene) at 25° C. with 10, 20, 30, 50, 100, 250, and 500 μM NAD^+ or 8-Bu(3-yne)T-NAD^+. The concentrations of the purified PARP-1 proteins were (1) 25 nM for PARP-1 with NAD^+, (2) 50 nM for PARP-1(L877A) with NAD^+, and […] 250 nM for PARP-1 and PARP-1(L877A) with 8-bu(3-yne)T-NAD^+. The reactions were brought to 450 mM perchloric acid (HClO4) to stop them, incubated for 5 minutes on ice, and then brought to […] potassium carbonate (K2CO3) to quench them. The quenched reactions were centrifuged at maximum speed in a microcentrifuge at 4° C., and the supernatant containing small molecules from the automodification reaction was collected.
(§2) The supernatants from the extracted ADP-ribosylation reactions were analyzed using a Shimadzu LCMS-QP8000α with a Phenomenex Kinetex C18 column (150×4.6 mm, 5 μm XB-C18 100A) monitored at 260 nm. […] Quantitative values for the small molecules and metabolites were obtained by comparison to a standard curve. […]

The target in another assay is T2, PARP-1 (Homo sapiens, UniProt P09874).
T2 construct: His10; made in house; host or cells: E. coli BL21(DE3) (inferred)
The assay is described as above. The class given is biochemical. As to conditions: 250 nM PARP-1, 10-500 μM analog; data not shown. The procedure: as §1, §2

T1 sequence (P09874 whole entry L877A): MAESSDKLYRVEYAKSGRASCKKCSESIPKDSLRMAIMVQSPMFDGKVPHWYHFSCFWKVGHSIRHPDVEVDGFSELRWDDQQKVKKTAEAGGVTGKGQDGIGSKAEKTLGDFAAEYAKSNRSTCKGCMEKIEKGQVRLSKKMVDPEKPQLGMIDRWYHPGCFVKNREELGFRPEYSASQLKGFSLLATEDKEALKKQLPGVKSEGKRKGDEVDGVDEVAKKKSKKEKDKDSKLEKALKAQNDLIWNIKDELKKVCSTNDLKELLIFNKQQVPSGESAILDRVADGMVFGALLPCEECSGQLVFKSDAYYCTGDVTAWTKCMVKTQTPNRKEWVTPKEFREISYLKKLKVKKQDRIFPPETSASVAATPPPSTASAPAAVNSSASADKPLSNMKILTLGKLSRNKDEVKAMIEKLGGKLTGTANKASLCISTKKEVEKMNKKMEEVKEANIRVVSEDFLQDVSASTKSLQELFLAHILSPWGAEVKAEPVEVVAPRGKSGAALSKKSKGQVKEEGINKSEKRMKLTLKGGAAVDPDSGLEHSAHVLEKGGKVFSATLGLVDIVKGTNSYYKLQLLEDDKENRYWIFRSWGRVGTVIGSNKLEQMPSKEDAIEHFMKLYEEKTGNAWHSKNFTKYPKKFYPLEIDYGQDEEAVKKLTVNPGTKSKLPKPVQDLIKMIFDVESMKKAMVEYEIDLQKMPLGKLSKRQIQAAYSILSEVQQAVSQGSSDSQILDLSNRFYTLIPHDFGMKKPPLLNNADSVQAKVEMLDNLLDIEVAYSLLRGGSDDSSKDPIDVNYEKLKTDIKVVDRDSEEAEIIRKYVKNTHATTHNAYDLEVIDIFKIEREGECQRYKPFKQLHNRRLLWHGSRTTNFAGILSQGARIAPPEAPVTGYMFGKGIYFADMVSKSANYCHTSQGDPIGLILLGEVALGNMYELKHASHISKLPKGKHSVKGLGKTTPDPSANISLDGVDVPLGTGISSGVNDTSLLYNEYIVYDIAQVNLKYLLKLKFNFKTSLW
T2 sequence (P09874 whole entry): as the sequence (P09874 whole entry L877A) above, with A877L counted along it

On to `C#CCCSc1nc2c(N)ncnc2n1[C@@H]1O[C@H](COP(=O)(O)OP(=O)(O)OC[C@H]2O[C@@H]([n+]3cccc(C(N)=O)c3)C(O)C2O)[C@H](O)C1O` (some centres unmarked) [8-Bu(3-yne)T-NAD^+], for which, on PARP-1 (L877A), the “enzyme kinetics compared to PARP-1 and NAD+” value is recorded as “nearing wild-type enzyme kinetics”. Moreover, the “saturation of PARylation activity” value on PARP-1 was “No saturation was detectable”.
